These results are taken from US20030215462A1, “Use of UGT inhibitors to increase bioavailability” (priority 2001, published 2003).

What is called Km is the concentration of substrate that gives half-maximal velocity.

The target in series [1] is T1, UGT1A3 (Homo sapiens, UniProt P35503).
T1 sequence (P35503 29-534): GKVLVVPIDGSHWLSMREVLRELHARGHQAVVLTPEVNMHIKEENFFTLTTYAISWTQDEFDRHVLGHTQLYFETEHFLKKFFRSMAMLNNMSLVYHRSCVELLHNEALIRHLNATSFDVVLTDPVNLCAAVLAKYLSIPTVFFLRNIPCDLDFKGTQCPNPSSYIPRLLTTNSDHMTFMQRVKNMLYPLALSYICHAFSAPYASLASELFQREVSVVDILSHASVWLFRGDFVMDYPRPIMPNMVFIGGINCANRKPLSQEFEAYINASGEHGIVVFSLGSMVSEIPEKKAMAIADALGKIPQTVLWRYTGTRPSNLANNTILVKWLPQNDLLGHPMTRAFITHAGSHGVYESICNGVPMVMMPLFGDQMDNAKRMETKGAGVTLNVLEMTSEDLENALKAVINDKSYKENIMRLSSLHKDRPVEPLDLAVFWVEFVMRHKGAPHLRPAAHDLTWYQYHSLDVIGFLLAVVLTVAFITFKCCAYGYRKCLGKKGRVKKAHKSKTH
Kind of series: Substrate glucuronidation by recombinant UGT1A3. Conditions: for 7-HFC glucuronidation rate: 7-HFC 50 μM.

Another series addresses UGT2B15 (Homo sapiens, UniProt P54855). Kind of series: Substrate glucuronidation by recombinant UGT2B15. The settings on record: UGT2B15 Supersomes 250 μg/ml; 7-HFC 50 μM.
The target in the next series is T2, UGT2B7 (Homo sapiens, UniProt P16662).
T2 sequence (P16662 24-529): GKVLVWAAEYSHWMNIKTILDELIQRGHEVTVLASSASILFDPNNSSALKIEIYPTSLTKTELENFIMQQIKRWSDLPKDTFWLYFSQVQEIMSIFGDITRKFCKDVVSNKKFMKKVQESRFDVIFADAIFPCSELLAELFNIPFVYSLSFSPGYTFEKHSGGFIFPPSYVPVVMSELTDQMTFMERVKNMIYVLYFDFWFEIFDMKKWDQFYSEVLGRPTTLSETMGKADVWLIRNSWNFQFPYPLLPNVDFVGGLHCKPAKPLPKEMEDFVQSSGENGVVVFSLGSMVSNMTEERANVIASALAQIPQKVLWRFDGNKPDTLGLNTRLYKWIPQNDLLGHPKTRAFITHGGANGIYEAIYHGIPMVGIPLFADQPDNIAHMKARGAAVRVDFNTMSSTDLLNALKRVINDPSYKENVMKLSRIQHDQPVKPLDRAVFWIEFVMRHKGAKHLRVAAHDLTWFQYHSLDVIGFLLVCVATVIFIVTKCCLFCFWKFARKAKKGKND
Kind of series: Substrate glucuronidation by recombinant UGT2B7. The settings on record: for 7-HFC glucuronidation rate: 7-HFC 50 μM.

A short description of series [2]: Glucuronidation of UGT substrates by human liver microsomes. The settings on record: human, human liver microsomes, pH 7.5.
Another series deals with human liver microsomes. Described as above. Conditions: for 7-HFC glucuronidation rate: 100 μg/ml protein, 1 mM UDPGA, 15 min.
Series [3] deals with T3, UGT1A10 (Homo sapiens, UniProt Q9HAW8).
T3 sequence (Q9HAW8 26-530): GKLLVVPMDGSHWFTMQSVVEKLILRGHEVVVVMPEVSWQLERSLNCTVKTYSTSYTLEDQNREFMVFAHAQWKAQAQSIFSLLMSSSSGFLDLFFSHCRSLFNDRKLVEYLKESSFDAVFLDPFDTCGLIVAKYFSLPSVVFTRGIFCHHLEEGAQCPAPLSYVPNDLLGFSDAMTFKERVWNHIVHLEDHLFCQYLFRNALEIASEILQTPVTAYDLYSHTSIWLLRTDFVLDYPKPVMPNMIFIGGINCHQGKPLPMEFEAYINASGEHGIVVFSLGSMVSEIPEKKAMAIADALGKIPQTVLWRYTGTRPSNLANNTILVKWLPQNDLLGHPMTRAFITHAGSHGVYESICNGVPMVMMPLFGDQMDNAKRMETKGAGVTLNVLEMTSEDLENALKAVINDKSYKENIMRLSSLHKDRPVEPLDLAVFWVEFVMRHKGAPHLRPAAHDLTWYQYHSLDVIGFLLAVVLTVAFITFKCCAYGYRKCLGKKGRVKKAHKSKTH
As to the kind of experiment: Substrate glucuronidation by recombinant UGT1A10. The settings on record: 7-HFC 50 μM.

Series [4] concerns pooled human jejunum microsomes. Kind of series: Glucuronidation of UGT substrates by pooled human jejunum microsomes. Conditions: human jejunum microsomes (table footnote).
Series [5] deals with UGT enzymes of pooled human jejunum microsomes. As to the kind of experiment: Inhibition of zidovudine glucuronidation in pooled human jejunum microsomes. The settings on record: inhibitor 50 μM. In kind it is biochemical.
Description: Increasing the microsomal protein concentration to 1 mg/ml and extending the incubation time to 60 min provided meaningful metabolite levels for inhibition studies.
For series [6] the following is noted: humans; cited from earlier work.
The target in series [7] is T1, UGT1A3.
Another series has as its target T4, UGT1A1 (Homo sapiens, UniProt P22309).
T4 sequence (P22309 26-533): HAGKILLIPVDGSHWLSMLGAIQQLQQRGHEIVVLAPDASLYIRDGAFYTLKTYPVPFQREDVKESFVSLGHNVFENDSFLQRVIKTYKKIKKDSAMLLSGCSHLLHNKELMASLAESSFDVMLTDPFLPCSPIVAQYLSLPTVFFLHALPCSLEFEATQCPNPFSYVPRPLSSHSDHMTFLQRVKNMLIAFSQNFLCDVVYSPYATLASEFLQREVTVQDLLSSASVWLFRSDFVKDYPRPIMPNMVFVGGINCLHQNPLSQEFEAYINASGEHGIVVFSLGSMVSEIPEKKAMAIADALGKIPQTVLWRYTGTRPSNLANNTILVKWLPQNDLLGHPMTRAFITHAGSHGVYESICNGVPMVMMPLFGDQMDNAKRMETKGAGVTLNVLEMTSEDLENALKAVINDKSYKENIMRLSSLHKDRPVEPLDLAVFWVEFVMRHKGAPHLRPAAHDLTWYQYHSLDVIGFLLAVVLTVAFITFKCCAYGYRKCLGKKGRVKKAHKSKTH

The target in series [8] is T3, UGT1A10.

Chain of UGT2B15 (P54855 24-530): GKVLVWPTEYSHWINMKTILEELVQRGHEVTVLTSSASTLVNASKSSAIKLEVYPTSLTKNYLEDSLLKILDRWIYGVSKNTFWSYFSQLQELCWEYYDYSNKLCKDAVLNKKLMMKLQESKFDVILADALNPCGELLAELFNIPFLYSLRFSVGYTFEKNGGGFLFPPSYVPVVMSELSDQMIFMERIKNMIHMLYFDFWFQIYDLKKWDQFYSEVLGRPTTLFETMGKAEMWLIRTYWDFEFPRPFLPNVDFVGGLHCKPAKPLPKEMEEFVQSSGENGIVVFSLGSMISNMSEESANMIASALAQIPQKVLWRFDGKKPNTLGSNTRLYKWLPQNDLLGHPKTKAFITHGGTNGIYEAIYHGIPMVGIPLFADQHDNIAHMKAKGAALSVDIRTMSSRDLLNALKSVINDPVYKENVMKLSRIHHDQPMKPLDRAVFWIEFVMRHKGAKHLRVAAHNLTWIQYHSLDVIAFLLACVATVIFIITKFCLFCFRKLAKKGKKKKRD

Consider `O=c1cc(C(F)(F)F)c2ccc(O)cc2o1` [7-HFC, 7-hydroxy-4-(trifluoromethyl)coumarin], for which the “7-HFC glucuronidation rate in Panvera Bacculosomes as % of Gentest Supersomes” value on UGT1A3 [1] (UGT1A3) was 2%; on UGT2B7 (UGT2B7), 22%. The 7-HFC glucuronidation rate at UGT1A3 [1] (UGT1A3 Bacculosomes 250 μg/ml) is listed as 17 ± 1 pmol/min/mg protein; on UGT1A3 [1] (UGT1A3 Supersomes 250 μg/ml), 952 ± 82 pmol/min/mg protein; at UGT2B15 it was 976 ± 17 pmol/min/mg protein; at UGT2B7 (UGT2B7 Bacculosomes 250 μg/ml) it was 212 ± 13 pmol/min/mg protein; at UGT2B7 (UGT2B7 Supersomes 250 μg/ml) it was 972 ± 72 pmol/min/mg protein; with human liver microsomes (liver microsome lot 032101), 29,907±562 pmol/min/mg. Further, the 7-HFC glucuronidation rate with human liver microsomes (liver microsome lot 062101) is reported as 33,039±493 pmol/min/mg; in the series on human liver microsomes (liver microsome lot 062900), 26,405±272 pmol/min/mg; at UGT1A10 [3] (UGT1A10 Bacculosomes 250 μg/ml) it was 553 ± 40 pmol/min/mg protein; at UGT1A10 [3] (UGT1A10 Supersomes 250 μg/ml) it was 460 ± 2 pmol/min/mg protein. Moreover, the Michaelis-Menten constant (Km) at 15 min in series [2] worked out at 85 µM. For the same molecule, the “7-HFC glucuronidation rate in human liver microsomes, times higher than UGT1A6 Supersomes” value with human liver microsomes was 6 times. Also, the 7-HFC metabolism rate is given as 26,405 ± 272 pmol/min/mg with human liver microsomes (human liver microsomes (table footnote)) and 6,829 ± 61 pmol/min/mg in series [4]. In the series on human liver microsomes (microsome lot 062900, substrate 20-500 μM), the “mean apparent Vmax for 7-HFC glucuronidation” value is on record as 60 nmol/min/mg microsomal protein.

For `CC/C(=C(/CC)c1ccc(O)cc1)c1ccc(O)cc1` [Diethylstilbestrol, reference compound], the “residual metabolism (percentage of control), zidovudine” value in series [5] is 42 (3) %.

On to `CC(CCc1ccccc1)NCC(O)c1ccc(O)c(C(N)=O)c1` (stereo not shown) [Labetalol, labetalol], for which the absolute oral bioavailability in [6] is 25-30%. Also, the “labetalol metabolism, in words” value on UGT1A3 [7], at UGT1A1 and at UGT1A10 [8] was “No detectable metabolism was observed” each time.
